Test results reported in patent US6642003B2, “Human glucose-dependent insulin-secreting cell line” (Cedars-Sinai Medical Center, priority 2001, dated 2003).

Tests used:
[1] = test system: PANC-1/IDX-1 cells; assay: RT-PCR of islet β-cell specific transcripts, PANC-1/IDX-1 cells; format: cell-based, human; conditions: Exendin-9 100 nM for 72 h
Method: PANC-1 cells were transfected with a pcDNA3 construct (Invitrogen; Carlsbad, Calif.) harboring the wild-type full-length IDX-1 cDNA using LipoTAXI (Catalog N. 204110; Mammalian Transfection Kit, Stratagene; La Jolla, Calif.). Control cells were transfected with the vector alone. The selection of positive (i.e. transfected) cells was carried out by culturing the cells in the presence of 400 μg/ml of G418 sulfate (GN-04, Omega; Tarzana, Calif.).
(§1) After the treatment of ARIP and PANC-1 cells with GLP-1, Exendin-9, or vehicle, for the described length of time and the various doses, the culture medium was removed and the cells were washed (twice) with serum-free medium. Total RNA was isolated using the TRiazol-method (Gibco-BRL), and treated with DNase (Amplification Grade, GibcoBRL) in 20 mmol/l Tris-HCL (pH 8.4), 2 mmol/l MgCl2, and 50 mmol/l KCl to remove any traces of contaminating genomic DNA. RNA (2.5 μg) was then subjected to reverse transcription (RT reagents; Promega; Madison, Wis.). RT-PCR was undertaken in a volume of 50 μl of buffer containing 50 mmol/l KCl, 10 mmol/l Tris-HCl, 3.5 mmol/l MgCl2, 200 μmol/l each dNTPs, and 0.4 μmol/l each of sense and antisense primers to rat or human insulin (depending on the specific cell from which the RNA was extracted). Amplification was performed for 30 cycles at the denaturing temperature of 94° C. for 1 min, annealing temperature of 60° C. for 45 sec, and an extension temperature of 72° C. for 1 min. […] These included more irregular and variable cell shapes, with a cytoplasm less homogenous and “rougher” in appearance than control culture.
(§2) Treatment with GLP-1 induces the differentiation of ductal epithelial cells into insulin-producing cells. FIG. 2 illustrates a series of cell cultures grown with or without GLP-1 (10 nM) for 72 h. […] Preabsorption of the antibody with an excess of human recombinant insulin prevented the staining of insulin-positive GLP-1 treated cells (data not shown). While treatment with GLP-1 turned the majority of ARIP cells into […] For β-actin, the annealing temperature was raised to 64° C. for 1 min and gene-specific primers were used. For GLP-1-receptor (GLP-R) the annealing temperature used was 55° C. All other experimental conditions to amplify GLUT2, glucokinase, and GLP-R mRNAs were identical to those described for the amplification of insulin mRNA. RT and PCR conditions for human transcripts were identical to those described for rat mRNAs.
(§3) Southern blotting with species-specific full length cDNA probes for insulin, GLUT-2, glucokinase, GLP-1 receptor and β-actin was performed as previously described. Y. Wang, R. Perfetti, N. H. Greig, H. W. Holloway, K. A. DeOre, C. Montrose-Rafizadeh, D. Elahi, J. M. Egan, “Glucagon-like peptide-1 can reverse the age-related decline in glucose tolerance in rats.” J Clin Invest 99:2883-2889, 1997.

[2] = test system: ARIP cells; assay: RT-PCR of islet β-cell specific transcripts, ARIP cells; format: cell-based, rat; conditions: Exendin-9 100 nM for 72 h
Method: as §1, §2, §3

[3] = test system: diabetic rats; conditions: adult animals after subtotal pancreatectomy; cited from earlier work

| Substance | effect on expression of β-cell-specific genes [1] | effect on expression of β-cell-specific genes [2] | effect on islet mass [3] |
| --- | --- | --- | --- |
| Exendin-9: the peptide receptor antagonist of GLP-1 | inhibited the expression of GLUT-2, insulin and glucokinase | inhibited the expression of GLUT-2, insulin and glucokinase | – |
| exendin4: an analog of the incretin hormone glucagon-like-peptide-1 | – | – | increase islet mass |
